Results as given in US10898481B2 (priority 2018, dated 2021).

Tests used:
[1] = biological target: hADORA1/CHO (hA1 expressing) cells (Homo sapiens (Human), UniProt P30542); experiment: cell-based; conditions: FLIPR inhibition, 10 μM adenosine, read-out: cAMP & FLIPR IC50 (nM) hA1
Method: hADORA1/CHO (hA1 expressing) cells (Genscript) were plated at 1×10^4 cells/well into 384-well polystyrene plates one day before starting the experiment. On the day of experiment, the supernatant was discard and replaced with 40 μL of dye (FLIPR calcium 5 Assay Kit) per well and the plates were incubated for 60 mins at 37° C. plus 5% CO2. Then testing compounds were added at different concentrations for FLIPR™ inhibition assay. After a 400s incubation with compound, 10 μM adenosine was added into the cells, and the signal was captured by FLIPR.

hA2a/CHO = hA2a/CHO (Homo sapiens (Human), UniProt P29274); experiment: cAMP inhibition assay in hA2a/CHO cells, 10 μM adenosine; type: cell-based; conditions: read-out: cAMP & FLIPR IC50 (nM) hA2a;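 further: compounds added to cells 30 min ahead of adenosine, then a further 30 min at 37 °C with adenosine before cAMP detection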
Method: (§1) hA2a/CHO, hA2b/CHO, hA3/CHO and mA2a/CHO (Genscript) were plated at 5×10^3 cells/well into 384-well polystyrene plates at the day of experiment. Compounds were pre-incubated with cells for 30 min at 37° C., 5% CO2. Then 10 μM adenosine was added to the cells and incubated for 30 min at 37° C., 5% CO2. Detection reagent (CISBIO) was added and the plates were incubated for 60 min at room temperature. The signal was captured by Envision.

hA2b/CHO = hA2b/CHO (Homo sapiens (Human), UniProt P29275); experiment: cAMP inhibition assay in hA2b/CHO cells, 10 μM adenosine; type: cell-based; conditions: read-out: cAMP & FLIPR IC50 (nM) hA2b;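 further: cells exposed to compound 30 min at 37 °C, then stimulated with adenosine a further 30 min, cAMP read after 60 min at room temperature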
Method: as §1

mA2a/CHO = mA2a/CHO (Mus musculus (Mouse), UniProt Q60613); experiment: cAMP inhibition assay in mA2a/CHO cells, 10 μM adenosine; type: cell-based; conditions: read-out: cAMP & FLIPR IC50 (nM) mA2a;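 further: compounds preincubated 30 min at 37 °C before the adenosine challenge, then 30 min further stimulation, readout after 60 min detection reagent incubation at room temperature in 384-well plates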
Chain of mA2a/CHO (Q60613 whole entry): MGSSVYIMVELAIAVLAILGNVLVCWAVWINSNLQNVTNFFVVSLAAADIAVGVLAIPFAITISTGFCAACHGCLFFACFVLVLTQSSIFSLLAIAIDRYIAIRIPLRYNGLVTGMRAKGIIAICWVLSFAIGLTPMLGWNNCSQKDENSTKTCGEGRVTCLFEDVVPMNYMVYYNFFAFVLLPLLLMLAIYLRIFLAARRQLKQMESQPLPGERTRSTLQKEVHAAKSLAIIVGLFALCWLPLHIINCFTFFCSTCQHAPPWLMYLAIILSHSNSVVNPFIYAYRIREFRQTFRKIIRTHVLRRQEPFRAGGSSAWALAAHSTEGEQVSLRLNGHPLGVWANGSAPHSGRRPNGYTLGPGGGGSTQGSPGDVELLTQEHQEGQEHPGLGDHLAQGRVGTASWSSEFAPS
Method: as §1

Chain of hA2a/CHO (P29274 whole entry): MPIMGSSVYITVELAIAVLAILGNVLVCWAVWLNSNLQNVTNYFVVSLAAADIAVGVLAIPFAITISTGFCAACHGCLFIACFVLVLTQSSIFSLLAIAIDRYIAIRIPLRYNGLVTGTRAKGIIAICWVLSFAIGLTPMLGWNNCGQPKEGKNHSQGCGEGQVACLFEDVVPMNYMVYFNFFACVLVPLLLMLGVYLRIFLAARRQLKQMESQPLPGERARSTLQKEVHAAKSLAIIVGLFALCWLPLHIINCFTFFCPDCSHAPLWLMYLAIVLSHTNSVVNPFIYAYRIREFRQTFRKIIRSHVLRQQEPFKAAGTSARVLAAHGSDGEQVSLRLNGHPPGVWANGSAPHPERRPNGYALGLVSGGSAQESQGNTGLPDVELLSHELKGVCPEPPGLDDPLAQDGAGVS
Chain of hA2b/CHO (P29275 whole entry): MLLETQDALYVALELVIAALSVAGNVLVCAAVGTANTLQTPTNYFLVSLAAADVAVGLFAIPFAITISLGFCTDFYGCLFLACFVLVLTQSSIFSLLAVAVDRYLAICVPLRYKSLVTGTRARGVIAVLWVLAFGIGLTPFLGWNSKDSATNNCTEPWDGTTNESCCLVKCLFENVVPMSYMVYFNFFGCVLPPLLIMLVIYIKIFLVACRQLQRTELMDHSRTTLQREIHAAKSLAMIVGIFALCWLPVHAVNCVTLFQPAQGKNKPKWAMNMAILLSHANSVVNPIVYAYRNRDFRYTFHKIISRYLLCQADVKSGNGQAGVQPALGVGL
Chain of hADORA1/CHO (hA1 expressing) cells (P30542 whole entry): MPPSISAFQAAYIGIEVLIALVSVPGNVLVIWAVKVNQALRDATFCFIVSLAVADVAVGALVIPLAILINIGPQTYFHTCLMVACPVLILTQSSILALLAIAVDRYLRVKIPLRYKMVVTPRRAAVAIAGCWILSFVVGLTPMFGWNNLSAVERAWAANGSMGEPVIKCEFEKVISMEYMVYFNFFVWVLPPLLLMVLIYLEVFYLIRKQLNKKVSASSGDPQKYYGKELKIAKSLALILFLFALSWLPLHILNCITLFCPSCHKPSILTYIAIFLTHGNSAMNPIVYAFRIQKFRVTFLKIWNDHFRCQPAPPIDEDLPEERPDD

## Cc1cnc2ccc(-c3nc(C(=O)NCC4CN(C)CCO4)c(N)nc3-c3ncco3)cn12 (racemic) [Example 207, rac-3-amino-6-(3-methylimidazo[1,2-a]pyridin-6-yl)-N-((4-methylmorpholin-2-yl)methyl)-5-(oxazol-2-yl)pyrazine-2-carboxamide]
[1]
  IC50: 5950 nM
hA2a/CHO
  IC50: 12 nM
hA2b/CHO
  IC50: 774 nM
mA2a/CHO
  IC50: 44 nM

## Cc1cnc2ccc(-c3nc(C(=O)NCC4COCCO4)c(N)nc3-c3ncco3)cn12 (racemic) [Example 211, rac-N-((1,4-dioxan-2-yl)methyl)-3-amino-6-(3-methylimidazo[1,2-a]pyridin-6-yl)-5-(oxazol-2-yl)pyrazine-2-carboxamide]
[1]
  IC50: 319 nM
hA2a/CHO
  IC50: 3.6 nM
hA2b/CHO
  IC50: 160 nM
mA2a/CHO
  IC50: 19 nM

## Cc1cnc2ccc(-c3nc(C(=O)NCC4CCC(=O)N4C)c(N)nc3-c3ncco3)cn12 (racemic) [Example 212, rac-3-amino-N-((1-methyl-5-oxopyrrolidin-2-yl)methyl)-6-(3-methylimidazo [1,2-a]pyridin-6-yl)-5-(oxazol-2-yl) pyrazine-2-carboxamide]
[1]
  IC50: > 10000 nM
hA2a/CHO
  IC50: 34 nM
hA2b/CHO
  IC50: 3430 nM
mA2a/CHO
  IC50: 175 nM

## COC(C)CNC(=O)c1nc(-c2ccc3ncc(C)n3c2)c(-c2ncco2)nc1N (racemic) [Example 228, rac-3-amino-N-(2-methoxypropyl)-6-(3-methylimidazo[1,2-a]pyridin-6-yl)-5-(oxazol-2-yl)pyrazine-2-carboxamide]
[1]
  IC50: 2020 nM
hA2a/CHO
  IC50: 2.7 nM
hA2b/CHO
  IC50: 210 nM
mA2a/CHO
  IC50: 23 nM

## Cc1cnc2ccc(-c3nc(C(=O)NCC4CCCCN4C)c(N)nc3-c3ncco3)cn12 (single isomer, unassigned; isomer 2) [Example 125, 3-amino-6-(3-methylimidazo[1,2-a]pyridin-6-yl)-N-((1-methylpiperidin-2-yl)methyl)-5-(oxazol-2-yl)pyrazine-2-carboxamide (isomer 2)]
hA2a/CHO
  IC50: 1440 nM
hA2b/CHO
  IC50: ≥ 10000 nM
mA2a/CHO
  IC50: ≥ 10000 nM

## Cc1cc(-c2nc(C(=O)NCc3ncccc3F)c(N)nc2-c2ccc(F)cc2)cc(C)n1 [Example 1, 3-amino-6-(2,6-dimethylpyridin-4-yl)-5-(4-fluorophenyl)-N-((3-fluoropyridin-2-yl)methyl)pyrazine-2-carboxamide]
hA2a/CHO
  IC50: 151 nM
hA2b/CHO
  IC50: ≥ 10000 nM
mA2a/CHO
  IC50: 1060 nM

## Cc1cc(-c2nc(C(=O)NCc3ccccc3C(F)(F)F)c(N)nc2-c2ccc(F)cc2)cc(C)n1 [Example 53, 3-amino-6-(2,6-dimethylpyridin-4-yl)-5-(4-fluorophenyl)-N-(2-(trifluoromethyl)benzyl)pyrazine-2-carboxamide]
hA2a/CHO
  IC50: 60 nM
hA2b/CHO
  IC50: ≥ 10000 nM
mA2a/CHO
  IC50: 529 nM

## Cc1ccn(-c2nc(N)c(C(=O)Nc3ccccc3OC(F)F)nc2-c2ccc(=O)n(C)c2)n1 [Example 59, 3-amino-N-(2-(difluoromethoxy)phenyl)-5-(3-methyl-1H-pyrazol-1-yl)-6-(1-methyl-6-oxo-1,6-dihydropyridin-3-yl)pyrazine-2-carboxamide]
hA2a/CHO
  IC50: 29 nM
hA2b/CHO
  IC50: ≥ 10000 nM
mA2a/CHO
  IC50: 66 nM

## Cc1cc(-c2nc(C(=O)Nc3ccccc3OC(F)F)c(N)nc2-n2ccc(C)n2)cc(N)n1 [Example 60, 3-amino-6-(2-amino-6-methylpyridin-4-yl)-N-(2-(difluoromethoxy)phenyl)-5-(3-methyl-1H-pyrazol-1-yl)pyrazine-2-carboxamide]
hA2a/CHO
  IC50: 24 nM
hA2b/CHO
  IC50: ≥ 10000 nM
mA2a/CHO
  IC50: 150 nM

## Cc1cc(-c2nc(C(=O)NCc3c(F)cccc3F)c(N)nc2-c2ccc(C)o2)cc(C)n1 [Example 62, 3-amino-N-(2,6-difluorobenzyl)-6-(2,6-dimethylpyridin-4-yl)-5-(5-methylfuran-2-yl)pyrazine-2-carboxamide]
hA2a/CHO
  IC50: 1.8 nM
hA2b/CHO
  IC50: ≥ 10000 nM
mA2a/CHO
  IC50: 28 nM

## COc1ccccc1CNC(=O)c1nc(-c2cc(C)nc(C)c2)c(-c2cnn(C)c2)nc1N [Example 63, 3-amino-6-(2,6-dimethylpyridin-4-yl)-N-(2-methoxybenzyl)-5-(1-methyl-1H-pyrazol-4-yl)pyrazine-2-carboxamide]
hA2a/CHO
  IC50: 33 nM
hA2b/CHO
  IC50: ≥ 10000 nM
mA2a/CHO
  IC50: 601 nM

## Cc1cc(-c2nc(C(=O)NCc3c(F)cccc3F)c(N)nc2-c2cnn(C)c2)cc(C)n1 [Example 64, 3-amino-N-(2,6-difluorobenzyl)-6-(2,6-dimethylpyridin-4-yl)-5-(1-methyl-1H-pyrazol-4-yl)pyrazine-2-carboxamide]
hA2a/CHO
  IC50: 52 nM
hA2b/CHO
  IC50: ≥ 10000 nM
mA2a/CHO
  IC50: ≥ 10000 nM

## COc1ncccc1CNC(=O)c1nc(-c2cc(C)nc(C)c2)c(-c2ccc(F)cc2)nc1N [Example 66, 3-amino-6-(2,6-dimethylpyridin-4-yl)-5-(4-fluorophenyl)-N-((2-methoxypyridin-3-yl)methyl)pyrazine-2-carboxamide]
hA2a/CHO
  IC50: 107 nM
hA2b/CHO
  IC50: ≥ 10000 nM
mA2a/CHO
  IC50: 730 nM

## COc1ccccc1CNC(=O)c1nc(-c2ccc(=O)n(C)c2)c(-c2ccc(F)cc2)nc1N [Example 67, 3-amino-5-(4-fluorophenyl)-N-(2-methoxybenzyl)-6-(1-methyl-6-oxo-1,6-dihydropyridin-3-yl)pyrazine-2-carboxamide]
hA2a/CHO
  IC50: 6.4 nM
hA2b/CHO
  IC50: 67 nM
mA2a/CHO
  IC50: 25 nM

## COc1ccccc1CNC(=O)c1nc(-c2cc(C)nc(Cl)c2)c(-c2ccc(F)cc2)nc1N [Example 68, 3-amino-6-(2-chloro-6-methylpyridin-4-yl)-5-(4-fluorophenyl)-N-(2-methoxy-benzyl)pyrazine-2-carboxamide]
hA2a/CHO
  IC50: 7.5 nM
hA2b/CHO
  IC50: 952 nM
mA2a/CHO
  IC50: 64 nM

## CCn1cc(-c2nc(C(=O)NCc3ccccc3OC)c(N)nc2-c2ccc(F)cc2)ccc1=O [Example 69, 3-amino-6-(1-ethyl-6-oxo-1,6-dihydro-pyridin-3-yl)-5-(4-fluorophenyl)-N-(2-methoxybenzyl)pyrazine-2-carboxamide]
hA2a/CHO
  IC50: 15 nM
hA2b/CHO
  IC50: 213 nM
mA2a/CHO
  IC50: 20 nM

## COc1ccccc1CNC(=O)c1nc(-c2ccc(=O)n(C(C)C)c2)c(-c2ccc(F)cc2)nc1N [Example 70, 3-amino-5-(4-fluorophenyl)-6-(1-isopropyl-6-oxo-1,6-dihydropyridin-3-yl)-N-(2-methoxybenzyl)pyrazine-2-carboxamide]
hA2a/CHO
  IC50: 10 nM
hA2b/CHO
  IC50: ≥ 10000 nM
mA2a/CHO
  IC50: 5.2 nM

## Nc1nc(-c2ccc(F)cc2)c(-c2ccc(=O)n(C3COC3)c2)nc1C(=O)NCc1c(F)cccc1F [Example 77]
hA2a/CHO
  IC50: 17 nM
hA2b/CHO
  IC50: 358 nM
mA2a/CHO
  IC50: 26 nM

## COc1ccccc1CNC(=O)c1nc(-c2cc(C)c(=O)n(C)c2)c(-c2ccc(F)cc2)nc1N [Example 82, 3-amino-6-(1,5-dimethyl-6-oxo-1,6-dihydropyridin-3-yl)-5-(4-fluorophenyl)-N-(2-methoxybenzyl)pyrazine-2-carboxamide]
hA2a/CHO
  IC50: 19 nM
hA2b/CHO
  IC50: 276 nM
mA2a/CHO
  IC50: 59 nM

## COc1ccccc1CNC(=O)c1nc(-c2cc(C)nc(C)c2)c(-c2ccc(F)cc2)nc1N [Example 89, 3-amino-6-(2,6-dimethylpyridin-4-yl)-5-(4-fluorophenyl)-N-(2-methoxybenzyl)pyrazine-2-carboxamide]
hA2a/CHO
  IC50: 17 nM
hA2b/CHO
  IC50: 5620 nM
mA2a/CHO
  IC50: 297 nM

## COc1cccc(F)c1CNC(=O)c1nc(-c2cc(C)nc(C)c2)c(-c2ccc(F)cc2)nc1N [Example 90, 3-amino-6-(2,6-dimethylpyridin-4-yl)-N-(2-fluoro-6-methoxybenzyl)-5-(4-fluorophenyl)pyrazine-2-carboxamide]
hA2a/CHO
  IC50: 4 nM
hA2b/CHO
  IC50: 781 nM
mA2a/CHO
  IC50: 95 nM

## Cc1cc(-c2nc(C(=O)NCc3ccccc3OC(F)F)c(N)nc2-c2ccc(F)cc2)cc(C)n1 [Example 91, 3-amino-N-(2-(difluoromethoxy)benzyl)-6-(2,6-dimethylpyridin-4-yl)-5-(4-fluorophenyl)pyrazine-2-carboxamide]
hA2a/CHO
  IC50: 8.9 nM
hA2b/CHO
  IC50: 1420 nM
mA2a/CHO
  IC50: 72 nM

## COc1ccc(F)cc1CNC(=O)c1nc(-c2cc(C)nc(C)c2)c(-c2ccc(F)cc2)nc1N [Example 92, 3-amino-6-(2,6-dimethylpyridin-4-yl)-N-(5-fluoro-2-methoxybenzyl)-5-(4-fluorophenyl)pyrazine-2-carboxamide]
hA2a/CHO
  IC50: 41 nM
hA2b/CHO
  IC50: ≥ 10000 nM
mA2a/CHO
  IC50: 216 nM

## COc1ccccc1CNC(=O)c1nc(-c2cc(C)nc(C)c2)c(-c2ccccc2)nc1N [Example 93, 3-amino-6-(2,6-dimethylpyridin-4-yl)-N-(2-methoxybenzyl)-5-phenylpyrazine-2-carboxamide]
hA2a/CHO
  IC50: 8 nM
hA2b/CHO
  IC50: 354 nM
mA2a/CHO
  IC50: 127 nM

## Cc1cnc2ccc(-c3nc(C(=O)NC[C@H]4CCCN4C)c(N)nc3-c3ccc(F)cc3)cn12 [Example 138, 3-amino-5-(4-fluorophenyl)-6-[3-methylimidazo[1,2-a]pyridin-6-yl]-N-[[(2R)-1-methylpyrrolidin-2-yl]methyl]pyrazine-2-carboxamide]
hA2b/CHO
  IC50: 959 nM
mA2a/CHO
  IC50: 70 nM

## Cc1cnc2ccc(-c3nc(C(=O)NC[C@@H]4CCCN4C)c(N)nc3-c3ccc(F)cc3)cn12 [Example 139, (S)-3-amino-5-(4-fluorophenyl)-6-(3-methylimidazo[1,2-a]pyridin-6-yl)-N-((1-methylpyrrolidin-2-yl)methyl) pyrazine-2-carboxamide]
hA2b/CHO
  IC50: 932 nM
mA2a/CHO
  IC50: 66 nM

## Cc1cnc2ccc(-c3nc(CNC(=O)[C@H]4CCCN4C)c(N)nc3-c3ccc(F)cc3)cn12 [Example 157, (2R)—N-[[3-amino-5-(4-fluorophenyl)-6-[3-methylimidazo[1,2-a]pyridin-6-yl]pyrazin-2-yl]methyl]-1-methylpyrrolidine-2-carboxamide]
hA2a/CHO
  IC50: 0.3 nM
hA2b/CHO
  IC50: 59 nM
mA2a/CHO
  IC50: 2.9 nM
